Measured values as given in ChEMBL document CHEMBL4393689, “Discovery of fluorescent coumarin-benzo[b]thiophene 1, 1-dioxide conjugates as mitochondria-targeting antitumor STAT3 inhibitors” (Eur J Med Chem, 2019).
Activity calls are given as the source filed them. The calls are words filed in the database; no cut-off is given here.

Key:
MDA-MB-231 [1] = experiment: Induction of apoptosis in human MDA-MB-231 cells assessed as increase in cleaved PARP levels at 1 to 4 uM incubated for 24 hrs by Western blot analysis; assay type: functional, cell-based
MDA-MB-231 [2] = experiment: Induction of apoptosis in human MDA-MB-231 cells assessed as late apoptotic cells at 4 uM incubated for 24 hrs by annexinV-FITC and propidium iodide staining based flow cytometric analysis (reference value: 1.0%); assay type: functional
MDA-MB-231 [3] = experiment: Induction of apoptosis in human MDA-MB-231 cells assessed as viable cells at 4 uM incubated for 24 hrs by annexinV-FITC and propidium iodide staining based flow cytometric analysis (reference value: 95.1%); assay type: functional; settings: MDA-MB-231, 24 h, read-out: Activity
HCT-116 = experiment: Antiproliferative activity against human HCT116 cells assessed as reduction in cell viability incubated for 48 hrs by MTT assay; assay type: functional, cell-based; settings: HCT-116, 48 h
4T1 [4] = experiment: Antitumor activity against mouse 4T1 cells implanted in BALB/c mouse assessed as reduction in tumor volume at 20 mg/kg, ip for 14 days; assay type: functional; settings: 4T1, ip, 336 h
MDA-MB-231 [5] = experiment: Effect on total STAT3 expression in human MDA-MB-231 cells at 1 to 4 uM incubated for 24 hrs by Western blot analysis; assay type: ADME, cell-based; settings: mda-mb-231, 24 h
MCF-10A = experiment: Cytotoxicity against human MCF10A cells assessed as reduction in cell viability incubated for 48 hrs by MTT assay; assay type: cell-based
MDA-MB-231 [6] = experiment: Induction of apoptosis in human MDA-MB-231 cells assessed as necrotic cells at 4 uM incubated for 24 hrs by annexinV-FITC and propidium iodide staining based flow cytometric analysis (reference value: 0.8%); assay type: functional
MCF7 = experiment: Potency index, ratio of IC50 of BTP to ratio of IC50 of compound for antiproliferative activity against human MCF7 cells assessed as reduction in cell viability incubated for 48 hrs by MTT assay; assay type: functional
MDA-MB-231 [7] = experiment: Induction of apoptosis in human MDA-MB-231 cells incubated for 24 hrs by annexinV-FITC and propidium iodide staining based flow cytometric analysis; assay type: functional, cell-based
MDA-MB-231 [8] = experiment: Induction of apoptosis in human MDA-MB-231 cells assessed as early apoptotic cells at 1 uM incubated for 24 hrs by annexinV-FITC and propidium iodide staining based flow cytometric analysis (reference value: 3.2%); assay type: functional
MDA-MB-231 [9] = experiment: Induction of apoptosis in human MDA-MB-231 cells assessed as necrotic cells at 2 uM incubated for 24 hrs by annexinV-FITC and propidium iodide staining based flow cytometric analysis (reference value: 0.8%); assay type: functional
[10] = target: Signal transducer and activator of transcription 3 (Homo sapiens) (UniProt P40763); experiment: Inhibition of STAT3 in human MDA-MB-231 cells assessed as decrease in STAT3-DNA binding at 1 to 4 uM incubated for 24 hrs by electrophoretic mobility shift assay; assay type: cell-based
Sequence of Signal transducer and activator of transcription 3 (Homo sapiens) (P40763 whole entry): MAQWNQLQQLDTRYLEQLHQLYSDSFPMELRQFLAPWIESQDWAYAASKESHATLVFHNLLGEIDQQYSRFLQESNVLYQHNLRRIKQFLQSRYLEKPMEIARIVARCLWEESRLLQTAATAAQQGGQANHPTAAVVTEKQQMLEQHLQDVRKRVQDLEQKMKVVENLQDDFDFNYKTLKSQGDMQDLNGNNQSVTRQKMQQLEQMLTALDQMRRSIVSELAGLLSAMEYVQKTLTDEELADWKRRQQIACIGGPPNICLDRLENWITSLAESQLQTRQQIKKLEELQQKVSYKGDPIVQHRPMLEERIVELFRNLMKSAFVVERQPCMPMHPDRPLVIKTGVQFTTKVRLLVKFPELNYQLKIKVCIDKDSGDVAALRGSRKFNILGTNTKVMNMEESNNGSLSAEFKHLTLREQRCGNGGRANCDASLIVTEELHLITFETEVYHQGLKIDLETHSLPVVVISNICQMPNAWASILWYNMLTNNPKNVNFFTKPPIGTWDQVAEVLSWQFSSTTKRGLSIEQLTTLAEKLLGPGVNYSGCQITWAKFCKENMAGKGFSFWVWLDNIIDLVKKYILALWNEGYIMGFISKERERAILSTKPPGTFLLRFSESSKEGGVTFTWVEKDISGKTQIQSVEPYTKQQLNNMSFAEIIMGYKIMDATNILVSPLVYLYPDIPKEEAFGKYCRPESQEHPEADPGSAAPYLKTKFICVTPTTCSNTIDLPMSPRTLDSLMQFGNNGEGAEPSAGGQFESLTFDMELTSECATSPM

MDA-MB-231 [11] = experiment: Inhibition of colony formation in human MDA-MB-231 cells assessed as reduction in cell proliferation at 1 uM treated for 24 hrs and measured after 10 to 14 days by crystal violet staining based assay; assay type: functional
MDA-MB-231 [12] = experiment: Induction of mitochondrial membrane depolarization in human MDA-MB-231 cells assessed as increase in green fluorescence incubated for 24 hrs JC-1 staining based flow cytometric analysis; assay type: functional, cell-based
[13] = target: T1, Signal transducer and activator of transcription 1-alpha/beta (Homo sapiens) (UniProt P42224); experiment: Inhibition of STAT1 in human MDA-MB-231 cells assessed as decrease in STAT1 phosphorylation at Y701 residue at 1 to 4 uM incubated for 24 hrs by Western blot analysis; assay type: cell-based
T1 sequence (whole entry): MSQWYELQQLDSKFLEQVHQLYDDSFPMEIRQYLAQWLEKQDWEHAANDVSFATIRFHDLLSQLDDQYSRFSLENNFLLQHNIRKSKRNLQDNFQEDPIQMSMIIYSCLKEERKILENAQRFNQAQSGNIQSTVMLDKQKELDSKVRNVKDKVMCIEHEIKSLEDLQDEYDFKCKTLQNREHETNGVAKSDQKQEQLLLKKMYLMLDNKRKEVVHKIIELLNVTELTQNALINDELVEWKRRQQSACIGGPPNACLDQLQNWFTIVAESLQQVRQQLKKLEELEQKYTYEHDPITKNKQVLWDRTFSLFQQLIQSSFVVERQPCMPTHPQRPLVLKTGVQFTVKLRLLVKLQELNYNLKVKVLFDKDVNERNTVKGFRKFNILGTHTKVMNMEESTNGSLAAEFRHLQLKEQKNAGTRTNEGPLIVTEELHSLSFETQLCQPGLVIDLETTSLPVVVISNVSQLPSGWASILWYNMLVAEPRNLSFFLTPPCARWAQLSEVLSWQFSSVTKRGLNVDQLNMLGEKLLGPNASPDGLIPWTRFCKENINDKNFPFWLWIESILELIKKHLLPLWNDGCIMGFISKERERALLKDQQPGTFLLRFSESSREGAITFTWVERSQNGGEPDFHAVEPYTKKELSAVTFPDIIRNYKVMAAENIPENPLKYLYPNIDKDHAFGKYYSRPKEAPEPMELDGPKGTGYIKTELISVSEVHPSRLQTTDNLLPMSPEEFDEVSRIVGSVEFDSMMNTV

MDA-MB-231 [14] = experiment: Induction of apoptosis in human MDA-MB-231 cells assessed as increase in cleaved caspase-9 levels at 1 to 4 uM incubated for 24 hrs by Western blot analysis; assay type: functional, cell-based
HepG2 = experiment: Antiproliferative activity against human HepG2 cells assessed as reduction in cell viability incubated for 48 hrs by MTT assay; assay type: functional, cell-based; settings: HepG2, 48 h
MDA-MB-231 [15] = experiment: Potency index, ratio of IC50 of BTP to ratio of IC50 of compound for antiproliferative activity against human MDA-MB-231 cells assessed as reduction in cell viability incubated for 48 hrs by MTT assay; assay type: functional
MDA-MB-231 [16] = experiment: Induction of apoptosis in human MDA-MB-231 cells assessed as viable cells at 2 uM incubated for 24 hrs by annexinV-FITC and propidium iodide staining based flow cytometric analysis (reference value: 95.1%); assay type: functional; settings: MDA-MB-231, 24 h, read-out: Activity
[17] = Drug accumulation in mitochondria of human MDA-MB-231 cells at 2 uM incubated for 60 mins by mitotracker red staining based confocal microscopy; assay type: ADME; settings: mda-mb-231, 1 h
[18] = target: Proto-oncogene tyrosine-protein kinase Src (Homo sapiens) (UniProt P12931); experiment: Inhibition of Src in human MDA-MB-231 cells assessed as reduction in Src phosphorylation at 1 to 4 uM incubated for 24 hrs by Western blot analysis; assay type: cell-based
Sequence of Proto-oncogene tyrosine-protein kinase Src (Homo sapiens) (P12931 2-536 limits assumed): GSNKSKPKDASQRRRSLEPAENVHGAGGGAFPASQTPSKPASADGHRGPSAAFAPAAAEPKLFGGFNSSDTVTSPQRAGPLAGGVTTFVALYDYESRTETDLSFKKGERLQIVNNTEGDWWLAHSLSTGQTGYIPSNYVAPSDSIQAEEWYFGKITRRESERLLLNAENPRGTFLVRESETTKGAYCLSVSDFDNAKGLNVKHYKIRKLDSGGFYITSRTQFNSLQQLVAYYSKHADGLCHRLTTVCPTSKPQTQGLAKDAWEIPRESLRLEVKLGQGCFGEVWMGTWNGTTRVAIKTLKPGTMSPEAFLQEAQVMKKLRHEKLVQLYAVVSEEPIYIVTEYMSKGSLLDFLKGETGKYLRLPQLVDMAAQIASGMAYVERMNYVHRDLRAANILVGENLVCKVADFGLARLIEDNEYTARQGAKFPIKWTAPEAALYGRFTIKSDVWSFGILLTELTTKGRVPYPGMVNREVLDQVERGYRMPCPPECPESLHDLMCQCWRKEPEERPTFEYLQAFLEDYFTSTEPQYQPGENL

MDA-MB-231 [19] = experiment: Induction of apoptosis in human MDA-MB-231 cells assessed as early apoptotic cells at 4 uM incubated for 24 hrs by annexinV-FITC and propidium iodide staining based flow cytometric analysis (reference value: 3.2%); assay type: functional
4T1 [20] = experiment: Antitumor activity against mouse 4T1 cells implanted in BALB/c mouse assessed as reduction in tumor volume at 10 mg/kg, ip for 14 days; assay type: functional; settings: 4T1, ip, 336 h
MDA-MB-231 [21] = experiment: Induction of apoptosis in human MDA-MB-231 cells assessed as early apoptotic cells at 2 uM incubated for 24 hrs by annexinV-FITC and propidium iodide staining based flow cytometric analysis (reference value: 3.2%); assay type: functional

Question: What does the source list for `CCN(CC)c1ccc2cc(C(=O)N3CCN(C(=O)C4=Cc5c(Br)cccc5S4(=O)=O)CC3)c(=O)oc2c1`?
Answer: Activity (MDA-MB-231 [1]): Active; Activity (MDA-MB-231 [2]): 4.8%; viability at 4 µM (MDA-MB-231 [3]): 77.5%; IC50 (HCT-116): 1890 nM; inhibition in vivo at 20 mg/kg (4T1 [4]): 61.2%; Activity (MDA-MB-231 [5]): Non-Toxic; IC50 (MCF-10A): 14600 nM; Activity (MDA-MB-231 [6]): 2.1%; Ratio IC50 (MCF7): 4.6 - 19; Activity (MDA-MB-231 [7]): Dose-dependent effect; Activity (MDA-MB-231 [8]): 5.4%; Activity (MDA-MB-231 [9]): 1.6%; inhibition [10]: Active; inhibition (MDA-MB-231 [11]): Active; Activity (MDA-MB-231 [12]): Dose-dependent effect; inhibition [13]: inactive; Activity (MDA-MB-231 [14]): Active; IC50 (HepG2): 2880 nM; Ratio IC50 (MDA-MB-231 [15]): 4.6 - 19; viability at 2 µM (MDA-MB-231 [16]): 89.3%; Drug uptake [17]: Active; inhibition [18]: inactive; Activity (MDA-MB-231 [19]): 15.6%; inhibition in vivo at 10 mg/kg (4T1 [20]): 52.3%; Activity (MDA-MB-231 [21]): 7.4%
